Measurements: patent US8278322
Like-named read-outs stand apart in the source and are kept apart here.

Work on `CCCC[C@@H]1NC(=O)OCCCC=Cc2ccc3ccnc(c3c2)O[C@@H]2C[C@@H](C(=O)OCC)N(C2)C1=O` yielded a ring closure, yield of all isomers (from C=CCCCOC(=O)N[C@@H](CCCC)C(=O)N1C[C@H](Oc2nccc3ccc(C=C)cc23)C[C@H]1C(=O)OCC, rcm bond, Zhan Catalyst I (RC-301), dichloro(5-chloro-2-isopropoxybenzylidene)(1,3-dimesitylimidazolidin-2-ylidene)ruthenium, 1,2-dichloroethane, 7.4 mM, 80.0 °C, 2.0 h) of 63.5%.
`C=C1CC(C)(C)COC(=O)N[C@@H](C2CCCCC2)C(=O)N2C[C@@H](C[C@H]2C(=O)OCC)Oc2nccc3cc(OC)c1cc23` gave a ring closure, yield of all isomers (from C=CCC(C)(C)COC(=O)N[C@H](C(=O)N1C[C@H](Oc2nccc3cc(OC)c(Br)cc23)C[C@H]1C(=O)OCC)C1CCCCC1, cc_pd bond, PdCl2(dppf), ethanol, 66.4 mM, 90.0 °C, 19.0 h) of 35.5%.
Compound `CCOC(=O)[C@@H]1C[C@@H]2CN1C(=O)[C@H](C(C)(C)C)NC(=O)OCCCC#Cc1ccc3ccnc(c3c1)O2` has a ring closure, yield of all isomers (from CCOC(=O)[C@@H]1C[C@@H](Oc2nccc3ccc(C#CCCCOC(=O)N[C@H](C(=O)O)C(C)(C)C)cc23)CN1C(=O)OC(C)(C)C, amide bond, HATU, DCM, 3.7 mM, 20.0 h, 2 steps) of 14.5%.
`CCOC(=O)[C@@H]1C[C@@H]2CN1C(=O)[C@H](C1CCCC1)NC(=O)OCC(C)(C)C/C=C/c1ccc3ccnc(c3c1)O2` showed a ring closure, yield of all isomers (from C=CCC(C)(C)COC(=O)N[C@H](C(=O)N1C[C@H](Oc2nccc3ccc(C=C)cc23)C[C@H]1C(=O)OCC)C1CCCC1, rcm bond, Zhan 1B, DCE, 2.88 mM, 70.0 °C, 3.0 h) of 83%.
